Results on 2 molecules are retold here after patent US20240139192A1, “METHODS AND COMPOSITIONS COMPRISING A BRAF INHIBITOR AND A MEK INHIBITOR” (Hoffmann-La Roche Inc., priority 2021, published 2024).

For one assay, the target named is BRAF V600E (Homo sapiens, UniProt P15056, V600E). The experiment in a line: biochemical.
The target of assay [1] is C-terminal Src kinase (CSK) (Homo sapiens, UniProt P41240). The experiment in a line: biochemical.
The next assay addresses CRAF (Homo sapiens, UniProt P04049). The assay is described as follows: biochemical.
Assay [2] deals with P-ERK in A375 cells (V600E mutated BRAF). The assay is described as follows: HTRF assay for P-ERK determination in A375 cells. The format is cell-based. As to conditions: Homo sapiens, A-375; A375 cell line, 1 hour drug incubation; read-out: pERK IC50 A375. From the text:
DMEM no-phenol red medium supplemented with L-glutamine was purchased from (Thermo Fisher Scientific). Fetal bovine serum (FBS) was purchased from VWR. […] 384-well microplates were purchased from Greiner Bio-One, 384-well, (With Lid, HiBase, Low volume cat 784-080).
ERK 1,2 phosphorylation (terminal member of the phosphorylation cascade of the MAPK pathway) is hereafter reported as main readout for the activation status of the MAPK pathway.
In order to allow proper data normalization control wells without drug treatment reported are always included in each plate (according to manufacturer's instruction):
The plate is then centrifuged at 300 rcf for 30 second, sealed to prevent evaporation and incubated overnight in the dark at room temperature.
The plate is then analyzed and fluorescence emission value collected through a Pherastast FSX (BMG Labtech) apparatus at […].
Data are normalized considering the average of the ratio (blank subtracted) derived by DMSO only treated cells as 100% and by considering the average of the ratio (blank subtracted) derived by 10 μM dabrafenib treated cells as 0%. Mean of the normalized points are fitted with sigmoidal curve and IC50 determined. […] Kd is the dissociation constant in the biochemical experiments.

Assay [3] deals with lymphocyte-specific tyrosine protein kinase (LCK) (Homo sapiens, UniProt P06239). The assay is described as follows: biochemical.
Assay [4] relates to P-ERK in A375 NRAS Q61K cells. The assay is described as follows: Western Blot analysis of phosphorylated ERK in A375 NRAS Q61K cells. The assay is classed as cell-based. The note with it: 1 h, alone or with 10 nM Cobimetinib, compared with Encorafenib or Encorafenib/Cobimetinib (FIG. 1).
Procedure: Cell lines were obtained from ATCC, maintained in humidified incubators at 5% CO2 in standard conditions and passaged twice a week.
The A375 cell line presenting BRAF V600E and the RAF dimer inducing mutation NRAS Q61K was utilized to model a mechanism of resistance to BRAFi and BRAFi/MEKi combinations.
A further assay has as its target BRAF (Homo sapiens, UniProt P15056). The assay is described as follows: biochemical.

Sequence of lymphocyte-specific tyrosine protein kinase (LCK) (P06239 whole entry): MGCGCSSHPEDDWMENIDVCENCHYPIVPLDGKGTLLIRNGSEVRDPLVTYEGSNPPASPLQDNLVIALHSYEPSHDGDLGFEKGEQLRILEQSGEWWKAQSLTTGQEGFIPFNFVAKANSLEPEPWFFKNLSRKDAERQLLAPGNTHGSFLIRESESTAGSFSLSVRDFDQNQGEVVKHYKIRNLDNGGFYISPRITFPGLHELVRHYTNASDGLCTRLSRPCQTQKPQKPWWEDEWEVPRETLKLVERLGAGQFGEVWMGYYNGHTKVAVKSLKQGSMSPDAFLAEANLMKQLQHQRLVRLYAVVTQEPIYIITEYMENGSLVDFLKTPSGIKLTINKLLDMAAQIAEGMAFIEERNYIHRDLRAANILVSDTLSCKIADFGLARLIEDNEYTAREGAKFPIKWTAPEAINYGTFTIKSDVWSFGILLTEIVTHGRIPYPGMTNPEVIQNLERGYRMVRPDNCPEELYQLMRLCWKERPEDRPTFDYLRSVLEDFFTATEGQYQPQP
Sequence of BRAF (P15056 whole entry): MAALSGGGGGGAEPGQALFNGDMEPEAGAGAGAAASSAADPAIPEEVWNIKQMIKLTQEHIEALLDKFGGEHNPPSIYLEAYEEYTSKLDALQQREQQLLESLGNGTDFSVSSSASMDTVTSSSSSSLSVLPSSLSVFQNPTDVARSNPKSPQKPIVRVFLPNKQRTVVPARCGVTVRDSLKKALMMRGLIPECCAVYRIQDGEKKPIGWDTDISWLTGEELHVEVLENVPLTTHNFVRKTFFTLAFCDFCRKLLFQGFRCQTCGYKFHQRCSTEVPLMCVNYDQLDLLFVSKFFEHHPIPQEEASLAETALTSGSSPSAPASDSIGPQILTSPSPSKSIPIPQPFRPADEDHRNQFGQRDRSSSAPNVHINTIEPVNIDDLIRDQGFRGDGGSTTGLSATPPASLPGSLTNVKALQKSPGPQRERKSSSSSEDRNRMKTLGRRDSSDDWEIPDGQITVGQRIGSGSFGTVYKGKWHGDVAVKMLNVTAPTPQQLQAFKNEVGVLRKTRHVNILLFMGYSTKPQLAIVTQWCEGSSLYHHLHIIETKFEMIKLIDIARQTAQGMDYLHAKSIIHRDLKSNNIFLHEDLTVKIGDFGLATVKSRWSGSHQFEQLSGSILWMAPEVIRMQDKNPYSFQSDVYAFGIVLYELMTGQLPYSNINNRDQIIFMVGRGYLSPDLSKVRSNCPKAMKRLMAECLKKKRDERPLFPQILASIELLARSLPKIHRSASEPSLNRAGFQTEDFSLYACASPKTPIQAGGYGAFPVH
Sequence of CRAF (P04049 whole entry): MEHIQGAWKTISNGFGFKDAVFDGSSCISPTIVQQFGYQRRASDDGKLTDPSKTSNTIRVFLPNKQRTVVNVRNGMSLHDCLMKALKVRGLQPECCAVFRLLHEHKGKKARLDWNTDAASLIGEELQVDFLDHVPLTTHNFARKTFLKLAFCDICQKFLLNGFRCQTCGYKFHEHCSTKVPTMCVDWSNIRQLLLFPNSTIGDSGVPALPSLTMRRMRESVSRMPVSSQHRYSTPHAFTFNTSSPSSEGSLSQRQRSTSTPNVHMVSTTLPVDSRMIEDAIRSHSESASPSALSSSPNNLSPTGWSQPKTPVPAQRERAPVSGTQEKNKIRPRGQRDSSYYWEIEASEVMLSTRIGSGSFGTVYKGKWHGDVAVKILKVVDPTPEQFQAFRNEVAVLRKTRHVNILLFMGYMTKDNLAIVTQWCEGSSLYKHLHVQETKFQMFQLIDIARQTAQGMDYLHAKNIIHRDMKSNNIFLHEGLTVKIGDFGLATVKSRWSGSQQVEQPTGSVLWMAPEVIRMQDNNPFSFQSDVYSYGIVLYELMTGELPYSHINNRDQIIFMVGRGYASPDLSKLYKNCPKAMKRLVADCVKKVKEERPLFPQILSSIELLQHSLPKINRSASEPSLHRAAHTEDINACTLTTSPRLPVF
Sequence of BRAF V600E (P15056 whole entry V600E): as the sequence (P15056 whole entry) above, with V600E counted along it
Sequence of C-terminal Src kinase (CSK) (P41240 whole entry): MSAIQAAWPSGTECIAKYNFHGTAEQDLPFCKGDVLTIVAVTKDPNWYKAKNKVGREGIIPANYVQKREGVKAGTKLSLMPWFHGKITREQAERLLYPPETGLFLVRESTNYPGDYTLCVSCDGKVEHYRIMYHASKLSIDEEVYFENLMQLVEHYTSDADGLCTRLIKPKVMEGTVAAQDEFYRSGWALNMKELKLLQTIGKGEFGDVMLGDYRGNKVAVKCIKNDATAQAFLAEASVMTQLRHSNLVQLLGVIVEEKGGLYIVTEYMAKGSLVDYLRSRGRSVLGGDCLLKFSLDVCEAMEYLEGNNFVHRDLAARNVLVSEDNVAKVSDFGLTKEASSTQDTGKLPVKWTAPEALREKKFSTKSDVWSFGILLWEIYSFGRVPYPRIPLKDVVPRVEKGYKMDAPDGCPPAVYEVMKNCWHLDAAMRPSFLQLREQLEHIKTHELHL

With `Cn1cnc2ccc(Oc3c(F)ccc(NS(=O)(=O)N4CC[C@@H](F)C4)c3C#N)cc2c1=O` [(Ia), (3R)-N-[2-cyano-4-fluoro-3-(3-methyl-4-oxo-quinazolin-6-yl)oxy-phenyl]-3-fluoro-pyrrolidine-1-sulfonamide], the Kd on BRAF V600E stood at 1.2 nM; in assay [1] it was 23300 nM; at CRAF, 1.7 nM; in assay [3], 40000 nM; on BRAF, 0.6 nM. Moreover, the IC50 in assay [2] was found to be 6.9 nM. For the same molecule, the “P-ERK inhibition (Western Blot)” value in assay [4] is on record as “superior P-ERK inhibition compared to Encorafenib”.

With `Cn1cnc2ccc(Oc3c(F)ccc(NS(=O)(=O)N4CC[C@H](F)C4)c3C#N)cc2c1=O` [(Ib), (3S)-N-[2-cyano-4-fluoro-3-(3-methyl-4-oxo-quinazolin-6-yl)oxy-phenyl]-3-fluoro-pyrrolidine-1-sulfonamide], the Kd was 0.9 nM at BRAF V600E; 9160 nM in assay [1]; 1.2 nM on CRAF; 20100 nM in assay [3]; 1.3 nM on BRAF. The IC50 in assay [2] came out at 10.6 nM.
